pIC50: −log10 of the molar value. “Also recorded” adds a separate entry of the source. Where a SMILES comes first, the peptide text is derived from it. [ ]: non-standard residue; d: D form. The star is where a group is joined. Daunorubicin(13-NOCH2CO) = COc1cccc2c1C(=O)c1c(O)c3c(c(O)c1C2=O)C[C@@](O)(C(C)=NOCC(=O)*)C[C@@H]3O[C@H]1C[C@H](N)[C@H](O)[C@H](C)O1; Sta = CC(C)C[C@H](N)[C@@H](O)CC(=O)O; Nle = CCCC[C@H](N)C(=O)O; Aib = CC(C)(N)C(=O)O; βAla = NCCC(=O)O
Experiments:
[1] = system: PC-3 human prostate adenocarcinoma cells; assay: MTT assay, in vitro cytostatic effect; format: cell-based; conditions: 24 h treatment at 3.125–25 µM, then cultured up to 72 h, mean ± SD, n = 2 independent experiments with four parallels
Protocol: (§1) Cells were distributed into 96-well tissue culture plates with an initial cell number of 5.0 × 10^3 per well. After 24 h incubation at 37 °C, the cells were treated with the compounds in 200 µL final volume containing 1.0 v/v% DMSO and 10% H2O. […] After incubation, the cells were washed twice with a serum-free medium. To determine the in vitro cytostatic effect, the cells were further cultured up to 72 h in a 10% serum-containing medium. A solution of 3-(4,5-dimethylthiazol-2-yl)-2,5-diphenyltetrazolium bromide and MTT-solution, (45 µL, 2 mg/mL, final concentration: […]) were added to each well. The respiratory chain [67] and other electron transport systems reduce MTT, and thereby form non-water-soluble violet formazan crystals within the cell. […] After 3 h of incubation, the cells were centrifuged for 5 min at 1000 g and the supernatant was removed. The obtained formazan crystals were dissolved in DMSO (100 μL) and the optical density (OD) of the samples was measured at λ = 540 and 620 nm, respectively, using ELISA Reader (iEMS Reader, Labsystems, Finland). OD620 values were subtracted from OD540 values. The percentage of cytostasis was calculated by using the following equation:Cytostatic effect (%) = [1 − (ODtreated/ODcontrol)] × 100(1)
(§2) Values of ODtreated and ODcontrol correspond to the optical densities of the treated and the control cells, respectively. In each case, two independent experiments were carried out with four parallel measurements. The 50% inhibitory concentration (IC50) values were determined from the dose–response curves. The curves were defined using Microcal™ Origin 2018 software: cytostasis was plotted as a function of concentration, fitted to a sigmoidal curve, and based on this curve, the half-maximal inhibitory concentration (IC50) value was determined. IC50 represents the concentration of a compound that is required for 50% inhibition in vitro and is expressed in micromolar units.

[2] = system: MDA-MB-453 human metastatic epithelial breast carcinoma cells; assay: MTT assay, in vitro cytostatic effect; format: cell-based; conditions: 24 h treatment at 3.125–25 µM, then cultured up to 72 h, mean ± SD, n = 2 independent experiments with four parallels
Protocol: as §1, §2

[3] = system: MDA-MB-231 human breast adenocarcinoma cells; assay: MTT assay, in vitro cytostatic effect; format: cell-based; conditions: 24 h treatment at 3.125–25 µM, then cultured up to 72 h, mean ± SD, n = 2 independent experiments with four parallels
Protocol: as §1, §2

[4] = system: PC-3 human prostatic adenocarcinoma xenograft in NOD-SCID mice; assay: In vivo tumour growth inhibition, subcutaneous PC-3 xenograft; parameters: species or system mouse; conditions: 10 mg/kg on Dau content i.p. every 5th day, n = 8
Protocol: The testing of the antitumour conjugates was carried out in a murine xenograft model. It was established by inoculating subcutaneously 100 µL of cell suspension of PC-3 prostate cancer cells with a concentration of 2 × 10^7 cells/mL.
Once the tumour volume reached 60 mm^3, mice were randomised and assigned to different groups for each treatment, respectively 0.9% saline as control, free daunorubicin, L5, and L6. Each group consisted of eight mice. Peptide–drug conjugates were injected intraperitoneally every 5th day, five times in total (daunorubicin dosage of 10 mg/kg for each treatment). In the case of free daunorubicin, two treatments were administered at the same time points as the first two treatments with conjugates, with a dosage of 1 mg/kg, the maximum tolerated dose (MTD). Weight and tumour size of mice were monitored throughout the whole experiment, two times per week. On day 33, mice were euthanized, and primary tumour, heart, lung, liver and spleen were harvested and stored in 4% formalin (Molar Chemicals, Halásztelek, Hungary). After 2–3 days of incubation in formalin, tissue samples were examined macroscopically. Organs and primary tumours from the different treatment groups were weighed and inspected under a stereomicroscope to see any occurrent changes in morphology compared to the controls.

[5] = Stability in incomplete (serum-free) DMEM; format: in vitro ADME; conditions: 25 µM, 37 °C, 600 rpm, LC–MS, n = 2
Protocol: The conjugates were incubated in incomplete DMEM for 3 h (similarly to the internalisation studies) or in 2.5% FBS containing DMEM for 24 h (conditions for the MTT assay). […] No significant loss of L1 and L5 (<20%) or L6 (<30%) was observed after 3 h (see Supplementary Materials, Figure S17).
DMSO stock solutions of the conjugates (2.5 mM) were diluted in DMEM free from or containing 2.5% FBS, to a final concentration of 25 μM. The mixture was incubated and stirred at 37 °C, 600 rpm, and 30 µL aliquots were collected after 0 min, 0.5, 1, 2, 4, 8 and 24 h, in duplicates. Then, to each sample, 90 µL of 0.1% formic acid containing MeCN was added and the samples were frozen at −25 °C for ≥30 min to aid protein precipitation. Large FBS components were removed by centrifugation (15 min, 5000 g, 4 °C). Aliquots of 50 µL supernatant were diluted with an equal volume of ddH2O + 0.1% formic acid and analysed by LC–MS. Control measurements were performed in the same manner (25 μM bioconjugate in 100% ddH2O).

[6] = Stability in mouse plasma; format: in vitro ADME; conditions: 37 °C, HPLC-MS; for Time after which release of the toxic metabolite Dau=Aoa-Leu-OH starts: 10 µM, for L5 and L6 in a considerably low amount; for remaining at 24 h, 10 μM: 600 rpm, n = 3, read-out: Intact conjugate after one day (24 h)
Protocol: Due to their low IC50 values and internalisation on the tested cell lines, conjugates L1, L5 and L6 were chosen for investigation of their stability in mouse plasma, as potential candidates for in vivo studies. They were incubated at a concentration of 10 µM, with mouse plasma for 24 h at 37 °C. Samples were collected at 0 h, 30 min, 1 h, 2 h, 4 h, 8 h and 24 h and analysed by HPLC-MS. […] Furthermore, after 2 h, L1 starts to release the toxic metabolite Dau=Aoa-Leu-OH, whereas this happens only after 24 h for L5 and L6, in a considerably low amount (see Supplementary Materials, Figures S18–S20).
The conjugates were dissolved in ddH2O containing 10% DMSO (stock solution: 100 μM) and diluted with mouse plasma to a final concentration of 10 μM. The mixture was incubated and stirred at 37 °C, 600 rpm, and 30 µL aliquots were collected after 0 min, 0.5, 1, 2, 4, 8 and 24 h, in triplicates. Then, to each plasma sample, 90 µL of 0.1% formic acid containing MeCN was added, and the samples were frozen at −25 °C for ≥30 min to aid protein precipitation. Large plasma proteins were removed by centrifugation (15 min, 5000× g, 4 °C). Aliquots of 50 µL supernatant were diluted with an equal volume of ddH2O + 0.1% formic acid and analysed by LC–MS. Control measurements were performed in the same manner (10 μM bioconjugate in 100% ddH2O).

healthy NOD-SCID mice = assay: In vivo chronic toxicity study in healthy mice; parameters: species or system mouse; conditions: 20 mg/kg calculated on Dau content, every 5th day, four treatments, n = 3
Protocol: Based on the stability assay performed in murine plasma, we decided to investigate L5 and L6 in vivo. To determine the dosage for the tumour growth inhibition experiment, we performed a chronic toxicity study using healthy mice. PDCs were administered every 5th day in three different doses calculated on the Dau content: 5 mg/kg, 10 mg/kg, and 20 mg/kg (Figure 4A). […] When 10 mg/kg drug was applied, the fitness of mice was not affected more than that of mice that received 5 mg/kg.
The toxicity experiments were done in healthy NOD-SCID mice. Treatments were administered every 5th day. Three different concentrations were tested, 5 mg/kg, 10 mg/kg and 20 mg/kg, respectively. Each group consisted of three mice. Mouse weight was monitored five times per week.

[7] = rat liver lysosomal homogenate; conditions: male Wistar rats, 37 °C, up to 72 h
incomplete DMEM = conditions: 37 °C, up to 3 h
mouse plasma = conditions: 37 °C, up to 24 h

CCCC[C@H](NC(=O)C(C)(C)NC(=O)[C@H](Cc1c[nH]cn1)NC(=O)CCNC(=O)[C@@H](NC(=O)[C@H](C)NC(=O)[C@H](Cc1c[nH]c2ccccc12)NC(=O)[C@H](CCC(N)=O)NC(=O)[C@@H](Cc1ccccc1)NC(=O)[C@H](Cc1ccc(O)cc1)NC(=O)[C@H](CCCNC(=N)N)NC(=O)[C@H](CCCNC(=N)N)NC(=O)[C@H](CC(C)C)NC(=O)CON=C(C)[C@]1(O)Cc2c(O)c3c(c(O)c2[C@@H](O[C@H]2C[C@H](N)[C@H](O)[C@H](C)O2)C1)C(=O)c1c(OC)cccc1C3=O)C(C)C)C(N)=O ({Daunorubicin(13-NOCH2CO)}-LRRY[dF]QWAV[βAla]H[Aib][Nle]-NH2)
time to release of active metabolite Dau=Aoa-Leu-OH: < 30 min

CC(=O)N[C@H](Cc1ccccc1)C(=O)N[C@@H](CCC(N)=O)C(=O)N[C@@H](Cc1c[nH]c2ccccc12)C(=O)N[C@@H](C)C(=O)N[C@H](C(=O)NCC(=O)N[C@@H](Cc1c[nH]cn1)C(=O)N[C@@H](CC(C)C)[C@@H](O)CC(=O)N[C@@H](CC(C)C)C(N)=O)C(C)C [FP1]
pIC50 [1]: < 4.00
pIC50 [2]: < 4.00
pIC50 [3]: < 4.00

CCCC[C@H](NC(=O)C[C@H](O)[C@H](CC(C)C)NC(=O)[C@H](Cc1c[nH]cn1)NC(=O)CCNC(=O)[C@@H](NC(=O)[C@H](C)NC(=O)[C@H](Cc1c[nH]c2ccccc12)NC(=O)[C@H](CCC(N)=O)NC(=O)[C@@H](Cc1ccccc1)NC(C)=O)C(C)C)C(N)=O [FP2] (Ac-[dF]QWAV[βAla]H[Sta][Nle]-NH2)
pIC50 [1]: < 4.00
pIC50 [2]: < 4.00
pIC50 [3]: < 4.00

COc1cccc2c1C(=O)c1c(O)c3c(c(O)c1C2=O)C[C@@](O)(C(C)=NOCC(=O)N[C@@H](CC(C)C)C(=O)N[C@@H](CCCNC(=N)N)C(=O)N[C@@H](CCCNC(=N)N)C(=O)N[C@@H](Cc1ccc(O)cc1)C(=O)N[C@H](Cc1ccccc1)C(=O)N[C@@H](CCC(N)=O)C(=O)N[C@@H](Cc1c[nH]c2ccccc12)C(=O)N[C@@H](C)C(=O)N[C@H](C(=O)NCC(=O)N[C@@H](Cc1c[nH]cn1)C(=O)N[C@@H](CC(C)C)[C@@H](O)CC(=O)N[C@@H](CC(C)C)C(N)=O)C(C)C)C[C@@H]3O[C@H]1C[C@H](N)[C@H](O)[C@H](C)O1 [L5, (Dau=Aoa)-LRRY-BBN[D-Phe6, Sta13, Leu14]] ({Daunorubicin(13-NOCH2CO)}-LRRY[dF]QWAVGH[Sta]L-NH2)
Toxicity during the tumour growth inhibition experiment [4]: lower toxicity compared to free daunorubicin
Loss of conjugate after 3 h [5]: < 20%
time to release of active metabolite Dau=Aoa-Leu-OH: < 30 min
Time after which release of the toxic metabolite Dau=Aoa-Leu-OH starts [6]: 24 h
remaining at 24 h, 10 μM [6]: > 80%
Decrease in mouse weight (healthy NOD-SCID mice): 10–15%

CCCC[C@H](NC(=O)C[C@H](O)[C@H](CC(C)C)NC(=O)[C@H](Cc1c[nH]cn1)NC(=O)CCNC(=O)[C@@H](NC(=O)[C@H](C)NC(=O)[C@H](Cc1c[nH]c2ccccc12)NC(=O)[C@H](CCC(N)=O)NC(=O)[C@@H](Cc1ccccc1)NC(=O)[C@H](Cc1ccc(O)cc1)NC(=O)[C@H](CCCNC(=N)N)NC(=O)[C@H](CCCNC(=N)N)NC(=O)[C@H](CC(C)C)NC(=O)CON=C(C)[C@]1(O)Cc2c(O)c3c(c(O)c2[C@@H](O[C@H]2C[C@H](N)[C@H](O)[C@H](C)O2)C1)C(=O)c1c(OC)cccc1C3=O)C(C)C)C(N)=O [L6, (Dau=Aoa)-LRRY-BBN[D-Phe6, β-Ala11, Sta13, Nle14]] ({Daunorubicin(13-NOCH2CO)}-LRRY[dF]QWAV[βAla]H[Sta][Nle]-NH2)
Toxicity during the tumour growth inhibition experiment [4]: lower toxicity compared to free daunorubicin
Loss of conjugate after 3 h [5]: < 30%
Time after which release of the toxic metabolite Dau=Aoa-Leu-OH starts [6]: 24 h
remaining at 24 h, 10 μM [6]: > 80%
Decrease in mouse weight (healthy NOD-SCID mice): 10–15%

Dau=Aoa-LRRY-QWAVGHL-Nle
cleaved bond [7]: Leu-Arg, 15 min
fragment found [7]: Dau=Aoa-LR-OH; also recorded: Dau=Aoa-LRR-OH
not cleaved (incomplete DMEM): highly stable for 1.5 h; no significant loss (<20%) after 3 h
fragment found (mouse plasma): Dau=Aoa-Leu-OH (M1), minor, 2 h

Dau=Aoa-LRRY-fQWAV-β-Ala-H-Aib-Nle
cleaved bond [7]: Leu-Arg, 15 min
fragment found [7]: Dau=Aoa-LR-OH; also recorded: H2N-RY-fQWAV-β-Ala-H-Aib-Nle-NH2; also recorded: H2N-Y-fQWAV-β-Ala-H-Aib-Nle-NH2; also recorded: H2N-RY-fQW-OH

Dau=Aoa-LRRY-fQWAV-β-Ala-H-Sta-Nle
cleaved bond [7]: Leu-Arg, 15 min
fragment found [7]: Dau=Aoa-LR-OH; also recorded: H2N-RY-fQWAV-βAla-H-Sta-Nle-NH2; also recorded: H2N-Y-fQWAV-βAla-H-Sta-Nle-NH2; also recorded: H2N-RY-fQW-OH
not cleaved (incomplete DMEM): highly stable for 1.5 h; no significant loss (<30%) after 3 h
fragment found (mouse plasma): Dau=Aoa-Leu-OH (M1), minor, 24 h

Dau=Aoa-LRRY-fQWAVGH-Sta-L
cleaved bond [7]: Leu-Arg, 15 min
fragment found [7]: Dau=Aoa-LR-OH; also recorded: H2N-RY-fQWAVGH-Sta-L-NH2; also recorded: H2N-VGH-Sta-L-NH2; also recorded: H2N-GH-Sta-L-NH2; also recorded: H2N-RY-fQW-OH; also recorded: H2N-RYfQ-OH
not cleaved (incomplete DMEM): highly stable for 1.5 h; no significant loss (<20%) after 3 h
fragment found (mouse plasma): Dau=Aoa-Leu-OH (M1), minor, 24 h

Source: PMC9967152 (International Journal of Molecular Sciences, 2023)
